Experimental data published in US4064169A, “Bis-(meta-amidinophenoxy)-compounds and pharmacologically acceptable acid addition salts thereof” (Eisai Co., Ltd., priority 1976, dated 1977).
Counter-ions that a name gives are not always drawn. Like-named read-outs stand apart in the source and are kept apart here.

Columns and labels:
Assay type in all cases: cell-based
[1] = test system: Candida tropicalis AHU 3071; assay: Antifungal Test (agar dilution M.I.C.); conditions: Table 1, 27° C.
Description: (§1) Respective agar plates were prepared by dissolving compounds under test in aseptic water to make a two fold dilution series, taking each 1 milliliter of said diluted solutions and 9 ml of Sabouraud medium into a petri dish, and sufficiently admixing the same.
(§2) On the other hand, an inoculum was prepared by cultivating an examined fungus (microorganism) on the Sabouraud slant medium and suspending two loopful of the incubated fungus in 10 ml of sterilized physiological saline water.
(§3) One loopful of the inoculum was streaked on the above-mentioned agar plate. After the agar plate was incubated at a defined temperature for a predetermined period of time to determine the minimal inhibitory concentration (M.I.C.).
(§4) Incubation temperature:
(§5) Incubation time: 3 days (72 hours) and […]

[2] = test system: Candida guilliermondii AHU 3654; assay: Antifungal Test (agar dilution M.I.C.); conditions: Meyerozyma guilliermondii, Table 1, 27° C.
Description: as §1, §2, §3, §4, §5

Saccharomyces cerevisiae = assay: Antifungal Test (agar dilution M.I.C.); conditions: Table 1, 27° C.
Description: as §1, §2, §3, §4, §5

Candida ulitis AHU 3053 = assay: Antifungal Test (agar dilution M.I.C.); conditions: Table 1, 27° C.
Description: as §1, §2, §3, §4, §5

Cryptococcus neoformans [3] = assay: Antifungal Test (agar dilution M.I.C.); conditions: Table 1, 27° C.
Description: as §1, §2, §3, §4, §5

[4] = test system: yeast-like fungi such as Candida, Cryptococcus; assay: Antifungal Test (summary)
Description: as §1, §2, §3

fungi of Table 4 = assay: Antifungal test when a serum is added (summary); conditions: 10% and 30% by volume horse serum
Description: (§6) Minimal inhibitory concentration (M.I.C.) was determined by preparing the agar plate medium in the same manner of the preceding pharmacological test 1, except for the addition of the horse serum. The concentration of the component in the medium was finally corrected, so that it may amount to the concentration of the component when the horse serum was not added.

[5] = test system: Candida albicans NAKAGAWA IFM 4017; assay: Antifungal test when a serum is added; conditions: 27° C, read-out: M.I.C. of serum added
Description: as §1, §2, §3, §6
(§7) Incubation temperature: […]

[6] = test system: Candida tropicalis AHU 3071; assay: Antifungal test when a serum is added; conditions: 27° C, read-out: M.I.C. of serum added
Description: as §1, §2, §3, §6, §7

[7] = test system: Candida albicans AHU 3656; assay: Antifungal test when a serum is added; conditions: 27° C, read-out: M.I.C. of serum added
Description: as §1, §2, §3, §6, §7

[8] = test system: Candida guilliermondii AHU 3654; assay: Antifungal test when a serum is added; conditions: Meyerozyma guilliermondii, 27° C, read-out: M.I.C. of serum added
Description: as §1, §2, §3, §6, §7

[9] = test system: Candida albicans IFM 4080; assay: Antifungal test when a serum is added; conditions: 27° C, read-out: M.I.C. of serum added
Description: as §1, §2, §3, §6, §7

Cryptococcus neoformans [10] = assay: Antifungal test when a serum is added; conditions: 27° C, read-out: M.I.C. of serum added
Description: as §1, §2, §3, §6, §7

[11] = test system: Candida albicans Yu-1200 IFM 4020; assay: Antifungal test when a serum is added; conditions: 27° C, read-out: M.I.C. of serum added
Description: as §1, §2, §3, §6, §7

[12] = 168 h, 10 % horse serum, 7 days
[13] = 168 h, 30 % horse serum, 7 days

N=C(N)c1cccc(OCC2CCC(COc3cccc(C(=N)N)c3)CC2)c1 (centres unmarked) [Compound A, 1,4-Bis-(m,m'-amidinophenoxymethyl)-cyclohexane-dihydrochloride]
MIC ([1]; AHU3071, 72 h, 3 days incubation): 3.13 µg/mL
MIC ([1]; AHU3071, 168 h, 7 days incubation): 3.13 µg/mL
MIC ([2]; AHU3654, 72 h, 3 days incubation): 25 µg/mL
MIC ([2]; AHU3654, 168 h, 7 days incubation): 25 µg/mL
MIC (Saccharomyces cerevisiae; 72 h, 3 days incubation): < 1.56 µg/mL
MIC (Saccharomyces cerevisiae; 168 h, 7 days incubation): < 1.56 µg/mL
MIC (Candida ulitis AHU 3053; AHU3053, 72 h, 3 days incubation): 3.13 µg/mL
MIC (Candida ulitis AHU 3053; AHU3053, 168 h, 7 days incubation): 3.13 µg/mL
MIC (Cryptococcus neoformans [3]; 72 h, 3 days incubation): 3.13 µg/mL
MIC (Cryptococcus neoformans [3]; 168 h, 7 days incubation): 3.13 µg/mL
antifungal activity [4]: excellent antifungal activity
influence of incubation temperature on antifungal activity ([4]; 27° C. and 37° C.): not influenced by the incubation temperature
antifungal activity with serum compared with no serum (fungi of Table 4): nearly same as that when the horse serum was not added
difference of antifungal activity with vs without horse serum (fungi of Table 4): 1 - 2 dilution step(s)
MIC ([5]; 72 h, 0 % horse serum, 3 days): 3.13 µg/mL
MIC ([5]; 72 h, 10 % horse serum, 3 days): 25 µg/mL
MIC ([5]; 72 h, 30 % horse serum, 3 days): 6.25 µg/mL
MIC ([5]; 168 h, 0 % horse serum, 7 days): 3.13 µg/mL
MIC [5, 12]: 25 µg/mL
MIC [5, 13]: 6.2 µg/mL
MIC ([6]; AHU3071, 72 h, 0 % horse serum, 3 days): 3.13 µg/mL
MIC ([6]; AHU3071, 72 h, 10 % horse serum, 3 days): 6.25 µg/mL
MIC ([6]; AHU3071, 72 h, 30 % horse serum, 3 days): 12.5 µg/mL
MIC ([6]; AHU3071, 168 h, 0 % horse serum, 7 days): 3.13 µg/mL
MIC ([6]; AHU3071, 168 h, 10 % horse serum, 7 days): 6.25 µg/mL
MIC ([6]; AHU3071, 168 h, 30 % horse serum, 7 days): 12.5 µg/mL
MIC ([7]; AHU3656, 72 h, 0 % horse serum, 3 days): 3.13 µg/mL
MIC ([7]; AHU3656, 72 h, 10 % horse serum, 3 days): 25 µg/mL
MIC ([7]; AHU3656, 72 h, 30 % horse serum, 3 days): 25 µg/mL
MIC ([7]; AHU3656, 168 h, 0 % horse serum, 7 days): 6.25 µg/mL
MIC ([7]; AHU3656, 168 h, 10 % horse serum, 7 days): 25 µg/mL
MIC ([7]; AHU3656, 168 h, 30 % horse serum, 7 days): 25 µg/mL
MIC ([8]; AHU3654, 72 h, 0 % horse serum, 3 days): 25 µg/mL
MIC ([8]; AHU3654, 72 h, 10 % horse serum, 3 days): 25 µg/mL
MIC ([8]; AHU3654, 72 h, 30 % horse serum, 3 days): 50 µg/mL
MIC ([8]; AHU3654, 168 h, 0 % horse serum, 7 days): 25 µg/mL
MIC ([8]; AHU3654, 168 h, 10 % horse serum, 7 days): 25 µg/mL
MIC ([8]; AHU3654, 168 h, 30 % horse serum, 7 days): 50 µg/mL
MIC ([9]; IFM4080, 72 h, 0 % horse serum, 3 days): 3.13 µg/mL
MIC ([9]; IFM4080, 72 h, 10 % horse serum, 3 days): 12.5 µg/mL
MIC ([9]; IFM4080, 72 h, 30 % horse serum, 3 days): 12.5 µg/mL
MIC ([9]; IFM4080, 168 h, 0 % horse serum, 7 days): 6.25 µg/mL
MIC ([9]; IFM4080, 168 h, 10 % horse serum, 7 days): 12.5 µg/mL
MIC ([9]; IFM4080, 168 h, 30 % horse serum, 7 days): 12.5 µg/mL
MIC (Cryptococcus neoformans [10]; 72 h, 0 % horse serum, 3 days): 3.13 µg/mL
MIC (Cryptococcus neoformans [10]; 72 h, 10 % horse serum, 3 days): 6.25 µg/mL
MIC (Cryptococcus neoformans [10]; 72 h, 30 % horse serum, 3 days): 12.5 µg/mL
MIC (Cryptococcus neoformans [10]; 168 h, 0 % horse serum, 7 days): 3.13 µg/mL
MIC (Cryptococcus neoformans [10]; [12]): 12.5 µg/mL
MIC (Cryptococcus neoformans [10]; [13]): 12.5 µg/mL
MIC ([11]; YU1200IFM4020, 72 h, 0 % horse serum, 3 days): < 1.56 µg/mL
MIC ([11]; YU1200IFM4020, 72 h, 10 % horse serum, 3 days): 6.25 µg/mL
MIC ([11]; YU1200IFM4020, 72 h, 30 % horse serum, 3 days): 25 µg/mL
MIC ([11]; YU1200IFM4020, 168 h, 0 % horse serum, 7 days): 3.13 µg/mL
MIC ([11]; YU1200IFM4020, 168 h, 10 % horse serum, 7 days): 6.25 µg/mL
MIC ([11]; YU1200IFM4020, 168 h, 30 % horse serum, 7 days): 25 µg/mL
